A melting point compilation (Tetko et al.; mined from patent text by program, amines drawn as free bases though some values may be those of a salt)

| melting point [°C] | SMILES |
| --- | --- |
| 52 to 53 | CCCCCCCCCCC[C@H](CC(=O)N[C@@H](CO)C(=O)OCc1ccccc1)OC(=O)CCCCCCCC |
| 68 | C=C(CC(NC(=O)OC(C)(C)C)C(=O)OCC)CC(NC=O)(C(=O)OCC)C(=O)OCC (stereo not drawn) |
| 122 to 123 | O=C(O)Cc1ccccc1OCCCCc1cc(-c2ccc(C(F)(F)F)cc2)no1 |
| 212 to 213 | Cc1c(C=NO)c2cc(Cl)ccc2n1-c1ccc(O)cc1 |
| 112 to 114 | CC(=O)c1ccc(Nc2c(F)c(F)cc(F)c2F)c(CC(=O)N(C)C)c1 |
| 118 to 121 | CC1C(=O)Oc2cc(N3CCOCC3)ccc21 (stereo not drawn) |
| 204 | CCc1nc(-c2ccc(N3CCN(C(=O)c4ccccc4C(F)(F)F)CC3)nn2)no1 |
| 154 to 157 | Cn1nnnc1SCCCC(=O)c1ccc(C(=O)O)o1 |
| 103 to 107 | CN(C)C(=O)C(OCc1ccc(-c2ccc(Cl)cc2)cc1)C(F)(F)F (stereo not drawn) |
| 167 to 169 | O=C(C=Cc1ccc(N2CCCC2)cc1)c1ccc2c(c1)CCCC2 |
| 249 | N#Cc1nc(N)nc(N)c1-c1ccc(Cl)cc1Cl |
| 235 to 237 | CCCC(=O)NC(C)c1nnc(C)[nH]c1=O (stereo not drawn) |
| 139 to 140 | O=C(O)c1ccc(OC(F)=C(F)F)cc1 |
| 252 | O=C(O)Cc1ccc(NC(=O)c2ccc(Cl)cc2)cc1 |
| > 250 | N#CC1=C(C2CC2)Nc2n[nH]cc2C1c1ccccc1Br (stereo not drawn) |
| 197 to 207 | COc1cc2c(c(Cl)c1Cl)C(=O)C(C)(c1ccccc1)C2c1ccccc1 (stereo not drawn) |
| 272 to 274 | N#Cc1ccc2cc(-c3ccc(O)cc3)oc2c1 |
| 139 to 140 | Cc1c(C)c2c(c(C)c1N)CC(C)(CSCCC(=O)O)O2 (stereo not drawn) |
| 120 to 122 | COc1ccc(C(=O)c2ccc3cc(OC)ccc3c2)c(F)c1 |
| 132 to 134 | Cc1noc(NS(=O)(=O)c2ccccc2-c2ccccc2)c1Cl |

| melting point [°C] | SMILES |
| --- | --- |
| 127 to 129 | O=C(NCCCn1ccnc1)c1ccoc1 |
| 241 to 243 | Fc1ccc2c(c1F)C(C#CC1CC1)(C(F)(F)F)NC(=S)N2 (racemic) |
| 198 to 199 | COc1nnc(N)c(=O)n1C |
| 66 | CC(C(=O)N(C)CCO)c1cc(C(C)(C)C)c(O)c(C(C)(C)C)c1 (stereo not drawn) |
| 60 | COC(=O)Cc1cccc(CNC(=O)C2Cc3ccccc3N2S(=O)(=O)c2ccc(-c3cccc(C(F)(F)F)c3)cc2)c1 (stereo not drawn) |
| 90 to 91 | Cc1ccc(S(=O)(=O)OCC2CCc3ncsc3C2)cc1 (stereo not drawn) |
| 106 to 107 | COc1ccc2oc(-c3ccccc3)c(CC#N)c2c1 |
| 153 to 158 | NC(=S)N(N)Cc1cccc(Cl)c1 |
| 110 to 112 | CCc1cccc(C)c1CNc1cc(Br)cc2c1nc(COC)n2C |
| 111 to 112 | C#CCCCCCCCCOc1cccc(C(N)=O)c1 |
| 152 to 153 | CC1(C)[C@H](Cc2noc(C3CCCCC3)n2)CC[C@]1(C)NCC(=O)N1C[C@@H](F)C[C@H]1C#N |
| 75 to 82 | CCCCN(c1nc(Cl)nc(N(CCCC)C2CC(C)(C)N(OC3CCCCC3)C(C)(C)C2)n1)C1CC(C)(C)N(OC2CCCCC2)C(C)(C)C1 |
| 45 to 47 | COCc1ncnc(N2CCCCC2)c1C |
| 194 to 195 | CC1CCC(Nc2c(C#N)c3ccccc3n2C)=CC1=O (stereo not drawn) |
| 129 to 134 | Cn1cc(C(=O)NCc2ccc(Cl)cc2)c(=O)c2cc(CN3CCOC[C@@H]3[C@H](O)c3ccccc3)sc21 |
| 197 to 199 | Cc1cc(Cl)c2c(O)c3c(=O)[nH][nH]c(=O)c3nc2c1 |
| 240 to 242 | O=C(O)c1ccc(Cn2c(=O)sc3ccc(C#CCc4ccccc4)cc3c2=O)cc1 |
| 126 | C=CCn1[nH]c2cc(OC)ccc2c1=O |
| 112 to 114 | CC(C)(C)c1cc(SCCCC(=O)O)cc(C(C)(C)C)c1O |
| 106 to 109 | CCCCCCC1=CC(O)(C(Br)Br)NC1=O (stereo not drawn) |

| melting point [°C] | SMILES |
| --- | --- |
| 121 to 124 | CC(C)(C)NS(=O)(=O)c1cccc2c1CSC2=O |
| 278 to 281 | O=C(O)Cc1ccc2occ(-c3ccc(C(=O)O)cc3)c2c1 |
| 73 to 74 | C=CCOc1cccc(-n2cnc(-c3nc(CC)no3)c2)c1 |
| 121 to 122 | [N-]=[N+]=C(C(=O)CCc1ccc(S(=O)(=O)Cl)cc1)C(=O)CCc1ccc(S(=O)(=O)Cl)cc1 |
| 85 to 87 | Clc1ccc2c(Cl)c3c(nc2c1)CCCC3 |
| 112 to 114 | CCNS(=O)(=O)CC(=O)C=C(C)N |
| 148 to 151 | CN(Cc1ccc[nH]1)C1CCCN(C(=O)c2ccc(Nc3nccc(Nc4ccc(F)cc4)n3)cc2)C1 (stereo not drawn) |
| 135 to 142 | COc1ccc2c(c1)OC(CNCCCOc1ccc3cccnc3c1)CO2 (stereo not drawn) |
| 196 to 198 | CCOC(=O)c1c2ccc(CC(=O)NOCC(=O)N3CCOCC3)ccc-2c(C(=O)OCC)c1N |
| 130 to 131 | NC(=O)CNC(=O)c1cccc(-c2c(F)ccc3cc(Cc4cccc(C(F)(F)F)c4)sc23)c1 |
| 163 to 165 | Cn1cnc2ccc(N/C(=C3\C(=O)Nc4ccccc43)c3ccccc3)cc21 |
| 173 to 175 | Cn1cc(-c2ccc(C(=O)N3Cc4cccn4Cc4ccccc43)cn2)cn1 |
| 68 to 70 | COC(=O)CN(NC(N)=O)c1cccc(C)c1 |
| 165 to 167 | Brc1ccc2c(c1)N=C(N1CCSCC1)c1cccc3c1N2CC3 |
| 74 to 77 | COCc1ncc(C(=O)OC)n1C |
| 246 to 248 | NC(=O)CN1C(=O)[C@@H](NC(=O)c2ccccc2)[C@H](c2ccccc2)Sc2ccccc21 (relative stereo) |
| 112 to 114 | C#CCn1c(-c2cc(Cl)nc(Cl)c2)nc(OS(=O)(=O)C(F)(F)F)c(CC)c1=O |
| 295 to 299 | N#Cc1c(N)sc2ccccc2c1=O |
| 200 to 203 | COc1cc2c(c(Cl)c1Cl)C(=O)C(C)(c1ccc(Br)cc1)C2 (stereo not drawn) |
| 214 to 217 | O=C(O)c1cc2ccc(OCCNC[C@H](O)COc3ccccc3)cc2o1 |

Continued, compound first:

| SMILES | melting point [°C] |
| --- | --- |
| O=C(c1ccc(Nc2ccnc3cc(Cl)ccc23)cc1)N1CCNCC1 | 248 to 250 |
| O=[N+]([O-])c1ccc(SCl)c(C(Cl)(Cl)Cl)c1 | 56 to 57 |
| COc1cc(CN2C(=O)C3(COc4cc5c(cc43)OCCO5)c3ccccc32)cc(OC)c1 (stereo not drawn) | 192 to 195 |
| COc1cc(Oc2csc(C(F)(F)F)c2)nc(-c2ccc(C(F)(F)F)cc2)n1 | 91 to 93 |
| CC1(C)CC(=O)c2c(C3CC3)sc(C#N)c2C1 | 80 to 83 |
| Oc1ccc(Nc2ccc3cc(Br)ccc3c2)cc1 | 179 to 180 |
| COc1ccc(N2CCN(c3ccc(NC(=O)NN)nc3)CC2)cc1 | 260 to 263 |
| COC(=O)NC1=NC(c2cccc(C(F)(F)F)c2)CN1 (stereo not drawn) | 173 to 174 |
| O=S(=O)(N[C@H](CO)C(CC(F)(F)F)CC(F)(F)F)c1ccc(Cl)cc1 | 186 to 187 |
| Cc1ccc(S(=O)(=O)NC(=O)C2C(=O)CC(CC(C)C)CC2=O)cc1 (stereo not drawn) | 128 to 130 |
| O=c1cc(S)sc2cc(N3CCOCC3)ccc12 | > 250 |
| c1cn2nc(N3CCNCC3)ccc2n1 | 122 to 123 |
| Cc1cc(C2=NN=C(C(=O)O)Cc3cc4c(cc32)OCO4)ccc1[N+](=O)[O-] | 185 to 186 |
| CC(C)c1ccc(NC(=O)OC(C)(C)C)c(NC(=O)CC(=O)c2cccc(C#N)c2)c1 | 179 to 180 |
| Cc1cc(-c2ccco2)ccc1-c1cc(C(F)(F)F)nn1-c1ccc(S(C)(=O)=O)c(F)c1 | 77 to 79 |
| Nc1ccc(C=CC2CSC(=O)NN2)cc1 (stereo not drawn) | 188 to 196 |
| CC#CCOc1cc(Nc2ccccc2)ncn1 | 159 |
| O=C1C(=Cc2ccc(-c3cccs3)s2)CCc2cc(OCCn3ccnc3)ccc21 | 180 to 181 |
| O=C1Oc2ccc3ccccc3c2CC1C(=O)c1cccc(C(F)(F)F)c1 (stereo not drawn) | 192 to 193 |
| CC(C)(C)[N+]([O-])=Cc1cc([N+](=O)[O-])ccc1O | 172 |
| Clc1ccc(-c2nc(COc3ccc(CCCn4ccnc4)cc3)co2)o1 | 88 to 89 |
| CSc1ccc(-c2cnn(C(C)(C)C)c(=O)c2OCCC(C)C)cc1 | 153 to 155 |

| SMILES | melting point [°C] |
| --- | --- |
| C1=CCCCCN(CCc2nccc3c2[nH]c2ccccc23)CCCC1 | 77 to 82 |
| COc1cc(OC)cc(SSc2cc(OC)cc(OC)c2)c1 | 152 to 160 |
| COc1c(OCc2ccccc2)cnc(CO)c1C | 70 to 73 |
| CCn1c(=O)c2c(nc(/C=C/c3ccc(OC(C)=O)cc3)n2C)n(CC)c1=O | 198 |
| CCCC(CC(=O)NC(=O)OC(C)(C)C)Nc1ccc(Cl)cc1 (stereo not drawn) | 76 to 77 |
| c1ccc2c(c1)Cn1cccc1CN2 | 145 to 148 |
| Cc1c(-c2ccc(OCC3CC3)cc2)nc2n(Cc3c(F)cccc3F)cc(-c3ccccc3)c(=O)n12 | 210 to 214 |
| C=CCCCCCCCCNC(=O)N(C)O | 58 to 59 |
| COc1cc(F)ccc1-c1ccc(S(=O)(=O)N2c3ccccc3CC2C(=O)NCCOc2ccc(CC(=O)O)cc2)cc1 (stereo not drawn) | 102 to 110 |
| CCNC(=O)c1ccc(OCC(O)c2ccc3c(c2)C(C)(C)CCC3(C)C)cc1O (stereo not drawn) | 65 to 70 |
| CCn1ncc2c(O)c3c(nc21)C(=O)c1ccccc1CC3 | 190 to 192 |
| CCc1cnc(OCCOc2ncnc(NS(=O)(=O)c3ccc(C(C)(C)C)cc3)c2Oc2cccc(OC)c2)nc1 | 158 to 160 |
| O=C(O)CCC1C2CC3CC(C2)CC1C3 (stereo not drawn) | 116 |
| CCOC(=O)c1c(N)c2cccnc2n(CC)c1=O | 205 to 208 |
| Cc1cc(-c2cscn2)ccc1-c1cc(C(F)(F)F)nn1-c1ccc(S(C)(=O)=O)c(F)c1 | 132 |
| CC1(C)CCC(C)(C)c2cc(N(Cc3ccc(Cl)cc3)C(=O)Nc3ccc(C(=O)O)cc3)ccc21 | 126 to 133 |
| CN=C1SCC(O)(C(c2ccccc2)c2ccccc2)N1C (stereo not drawn) | 133 to 136 |
| CSc1nnc(-c2cc3c(Oc4ccc(Cl)cc4)cncc3s2)o1 | 158 to 160 |
| Clc1cccc(-c2nc(-c3ccccn3)no2)c1Cl | 128 to 133 |
| CCOC(=O)CNc1ccc(Cl)c(Cl)c1 | 103 to 104 |
| CCCSC(=S)N1Cc2[nH]c3ccccc3c2CC1CO (stereo not drawn) | 130 to 131 |
